Test results published in patent publication US11679107B2 (Eisai R&D Management Co., Ltd., priority 2018, dated 2023).
Read-outs that look alike come from different tables or passages of the source.

Experiments:
[1] = test system: Ad2 variant pre-mRNAs spliced in HeLa S3 nuclear extracts; test: In vitro splicing assay (IVS), RT-qPCR of spliced product; format: biochemical; details: for IC50: geometric mean; for Ratio Ad2.1/2.2: ratio of IVS IC50 Ad2.1 to Ad2.2
Method in brief: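 Read-out is one-step TaqMan RT-qPCR of spliced Ad2 mRNA with Ftz as reference, normalized to DMSO and fit by non-linear regression. Reactions held HeLa S3 nuclear extract, 2 ng Ad2-derived pre-mRNA and test compound, with 15 min preincubation. Splicing was started with ATP-containing activation buffer and run 90 min at 30 °C.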

[2] = test system: Panc 05.04 cells (SF3b K700E mutant); test: Cell proliferation and viability, CellTiter-Glo, 72 hours; format: cell-based; details: for GI50: geometric mean
Method in brief: (§1)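 RPMI-1640/10% FBS (Panc: + insulin, FBS 15%); 11-pt half-log dose, ~10 μM-100 pM, 0.1% DMSO; 37° C, 5% CO2; ATP luminescence read; % inhibition vs T0 and vehicle, −100% cidal to 100% uninhibited growth.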

[3] = test system: NCI-H1568 cells (high MCL1); test: as above; format: cell-based; details: for GI50: geometric mean
Method in brief: as §1

SF3b complexes = target: T1, SF3b complexes (Homo sapiens, UniProt O75533+Q7RTV0); test: Scintillation proximity assay (SPA) with [3H]-labelled pladienolide probe; format: binding; details: SF3B1 (WT); geometric mean; read-out: SPA-ATS GMean IC50 (nM) SF3B1 (WT)
T1 construct: endogenous in cells; host or cells: Nuclear extracts; A HeLa S3 extract preparation is described for the in vitro splicing assay
Method in brief: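 SF3b complexes captured from nuclear extracts on anti-SF3B1 antibody SPA beads; test compounds pre-incubated 30 min before 2.5 nM [3H]-pladienolide probe added, then 30 min incubation. Bound probe read by scintillation; values from non-linear regression of concentration–response curves.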

[4] = Ad2.1 pre-mRNA substrate, read-out: qPCR-IVS-ATS GMean IC50 (nM) Ad2.1
[5] = Ad2.2 pre-mRNA substrate, read-out: qPCR-IVS-ATS GMean IC50 (nM) Ad2.2
[6] = 72 h, PANC0504.1, -100% = cidal, 0% = static, 100% = uninhibited growth
[7] = Panc 05.04, 72 h, read-out: CTGlo-ATS GMean GI50 (nM) 72 h PANC0504.1, 72 h, PANC0504.1
[8] = 72 h, NCIH1568.1, -100% = cidal, 0% = static, 100% = uninhibited growth
[9] = NCI-H1568, 72 h, read-out: CTGlo-ATS GMean GI50 (nM) 72 h NCIH1568.1, 72 h, NCIH1568.1
[10] = PANC0504.1 cells, 72 h, −100% cidal, 0% static, 100% maximal growth
[11] = Panc 05.04, 72 h, read-out: CTGlo-ATS GMean GI50 (nM) 72 h PANC0504.1, PANC0504.1 cells, 72 h
[12] = NCI-H1568, 72 h, read-out: CTGlo-ATS GMean GI50 (nM) 72 h NCIH1568.1, NCIH1568.1 cells, 72 h
[13] = NCIH1568.1 cells, 72 h, −100% cidal, 0% static, 100% maximal growth
[14] = Panc 05.04, read-out: CTGlo-ATS GMean GI50 (nM) 72 h PANC0504.1, PANC0504.1 cells, 72 h
[15] = NCI-H1568, read-out: CTGlo-ATS GMean GI50 (nM) 72 h NCIH1568.1, NCIH1568.1 cells, 72 h
[16] = Panc 05.04, read-out: CTGlo-ATS GMean GI50 (nM) 72 h PANC0504.1, 72 h, PANC0504.1
[17] = NCI-H1568, read-out: CTGlo-ATS GMean GI50 (nM) 72 h NCIH1568.1, 72 h, NCIH1568.1

| SMILES | IC50 [1, 4] [nM] | IC50 [1, 5] [nM] | Ratio Ad2.1/2.2 [1] | CTGlo-ATS Mean MinResponse % 72 h PANC0504.1 [2, 6] [%] | GI50 [2, 7] [nM] | CTGlo-ATS Mean MinResponse % 72 h NCIH1568.1 [3, 8] [%] | GI50 [3, 9] [nM] | IC50 (SF3b complexes) [nM] | CTGlo-ATS Mean MinResponse % 72 h PANC0504.1 [2, 10] [%] | GI50 [2, 11] [nM] | GI50 [3, 12] [nM] | CTGlo-ATS Mean MinResponse % 72 h NCIH1568.1 [3, 13] [%] | GI50 [2, 14] [nM] | GI50 [3, 15] [nM] | GI50 [2, 16] [nM] | GI50 [3, 17] [nM] |
| --- | --- | --- | --- | --- | --- | --- | --- | --- | --- | --- | --- | --- | --- | --- | --- | --- |
| C/C(=C\c1cccc(S(=O)(=O)N2CCCC2)c1)[C@H]1OC(=O)C[C@H](O)CC[C@H](C)[C@@H](OC(=O)N2CCN(C)CC2)/C=C/[C@@H]1C [Compound 214, [(2S,3S,4E,6R,7S,10R)-10-hydroxy-3,7-dimethyl-12-oxo-2-[(E)-1-(3-pyrrolidin-1-ylsulfonylphenyl)prop-1-en-2-yl]-1-oxacyclododec-4-en-6-yl] 4-methylpiperazine-1-carboxylate] | 3920 | 19.2 | 204.217 | −91.986 | 3.29 | −48.793 | 6.37 | 2.3 | – | – | – | – | – | – | – | – |
| C/C(=C\c1cc(F)cc(N2CCN(C(=O)C3CCCCC3)CC2)c1)[C@H]1OC(=O)C[C@H](O)CC[C@H](C)[C@@H](OC(=O)N2CCN(C)CC2)/C=C/[C@@H]1C [Compound 114] | 103 | 39.1 | – | – | – | – | – | 18.2 | −82.856 | 12.3 | 9.35 | −87.102 | – | – | – | – |
| C/C(=C\c1cc(F)cc(N2CCOCC2)c1)[C@H]1OC(=O)C[C@H](O)CC[C@H](C)[C@@H](OC(=O)N2CCN(C3CCCC3)CC2)/C=C/[C@@H]1C [Compound 27] | 39.9 | 42.3 | – | – | – | – | – | 10.5 | −84.822 | – | – | −71.773 | 11.9 | 12.3 | – | – |
| COc1ccc(S(=O)(=O)N2CCN(c3cc(F)cc(/C=C(\C)[C@H]4OC(=O)C[C@H](O)CC[C@H](C)[C@@H](OC(=O)N5CCN(C)CC5)/C=C/[C@@H]4C)c3)CC2)cc1 [Compound 110] | 142 | 63.2 | – | – | – | – | – | 42.1 | −74.667 | – | – | −93.755 | 41.8 | 40.9 | – | – |
| C/C(=C\c1cc(F)c2cn(CC3CC3)nc2c1)[C@H]1OC(=O)C[C@H](O)CC[C@H](C)[C@@H](OC(=O)N2CCN(C)CC2)/C=C/[C@@H]1C [Compound 99] | > 25000 | 156 | – | – | – | – | – | 4.14 | −69.788 | – | – | −73.818 | 78 | 93.2 | – | – |
| COCC(=O)Nc1cc(F)cc(/C=C(\C)[C@H]2OC(=O)CC(O)CCC(C)[C@@H](OC(=O)N3CCN(C)CC3)/C=C/[C@@H]2C)c1 (stereo in doubt) [Compound 249, [(2S,3S,4E,6R,7R,10S)-2-[(E)-1-[3-fluoro-5-[(2-methoxyacetyl)amino]phenyl]prop-1-en-2-yl]-10-hydroxy-3,7-dimethyl-12-oxo-1-oxacyclododec-4-en-6-yl] 4-methylpiperazine-1-carboxylate] | 6350 | 33.6 | 188.921 | −93.297 | – | −49.016 | – | 5.16 | – | – | – | – | – | – | 13.8 | 14.5 |
| C/C(=C\c1cc(F)cc(N2CCN(C#CF)C2=O)c1)[C@H]1OC(=O)C[C@H](O)CC[C@H](C)[C@@H](OC(=O)N2CCN(C)CC2)/C=C/[C@@H]1C [Compound 66] | 206 | 33.9 | – | – | – | – | – | 2.23 | −89.623 | – | – | −64.699 | 8.22 | 11.7 | – | – |
| C/C(=C\c1cc(F)cc(N2CCCC2=O)c1)[C@H]1OC(=O)C[C@H](O)CC[C@H](C)[C@@H](OC(=O)N2CCN(C)CC2)/C=C/[C@@H]1C [Compound 42] | 330 | 12.6 | – | – | – | – | – | 2.92 | −86.319 | – | – | −63.030 | 4.76 | 6.13 | – | – |
| C/C(=C\c1cc(F)cc(N2CCO[C@H](CO)C2)c1)[C@H]1OC(=O)C[C@H](O)CC[C@H](C)[C@@H](OC(=O)N2CCN(C)CC2)/C=C/[C@@H]1C [Compound 76] | 21.5 | 17.7 | – | – | – | – | – | 4.2 | −90.504 | 5.17 | 3.02 | −77.948 | – | – | – | – |
| C/C(=C\c1cc(F)cc(N2CCOC[C@H]2C)c1)[C@H]1OC(=O)C[C@H](O)CC[C@H](C)[C@@H](OC(=O)N2CCN(C)CC2)/C=C/[C@@H]1C [Compound 75] | 19 | 15.4 | – | – | – | – | – | 2.15 | −81.995 | – | – | −85.064 | 3.69 | 3.58 | – | – |
| C/C(=C\c1cc(F)cc(N2CCOCC2)c1)[C@H]1OC(=O)C[C@H](O)CC[C@H](C)[C@@H](OC(=O)N2CC[C@H](N(C)C)C2)/C=C/[C@@H]1C [Compound 244, [(2S,3S,4E,6R,7S,10R)-2-[(E)-1-(3-fluoro-5-morpholin-4-ylphenyl)prop-1-en-2-yl]-10-hydroxy-3,7-dimethyl-12-oxo-1-oxacyclododec-4-en-6-yl] (3S)-3-(dimethylamino)pyrrolidine-1-carboxylate] | 3580 | 38.5 | 93.018 | −95.630 | – | −65.165 | – | 3.38 | – | – | – | – | – | – | 27.6 | 20.2 |
| C/C(=C\c1cccc(S(=O)(=O)C2CC2)c1)[C@H]1OC(=O)C[C@H](O)CC[C@H](C)[C@@H](OC(=O)N2CCN(C)CC2)/C=C/[C@@H]1C [Compound 215, [(2S,3S,4E,6R,7S,10R)-2-[(E)-1-(3-cyclopropylsulfonylphenyl)prop-1-en-2-yl]-10-hydroxy-3,7-dimethyl-12-oxo-1-oxacyclododec-4-en-6-yl] 4-methylpiperazine-1-carboxylate] | 20500 | 50.7 | 403.817 | −81.853 | 20 | −42.412 | 25 | 6.83 | – | – | – | – | – | – | – | – |
| C/C(=C\c1cnn(Cc2ccncc2)c1)[C@H]1OC(=O)C[C@H](O)CC[C@H](C)[C@@H](OC(=O)N2CCN(C)CC2)/C=C/[C@@H]1C [Compound 102] | > 25000 | 507 | – | – | – | – | – | 29.8 | 24.371 | – | – | 31.099 | 3020 | 4900 | – | – |
| C/C(=C\c1cc(F)cc(N2CCN(C(=O)CN3CCOCC3)CC2)c1)[C@H]1OC(=O)C[C@H](O)CC[C@H](C)[C@@H](OC(=O)N2CCN(C)CC2)/C=C/[C@@H]1C [Compound 119] | 31 | 21.7 | – | – | – | – | – | 11.7 | −75.344 | – | – | −81.451 | 8.43 | 8.84 | – | – |
| C/C(=C\c1cc(F)cc(N2CCOCC2)c1)[C@H]1OC(=O)C[C@H](O)CC[C@H](C)[C@@H](OC(=O)N(C)C2CCCN(C)C2)/C=C/[C@@H]1C (some centres unmarked) [Compound 37] | 85.8 | 20.2 | – | – | – | – | – | 2.27 | −86.134 | – | – | −82.247 | 4.61 | 4.75 | – | – |
| C/C(=C\c1cccc2c1c(C)nn2C)[C@H]1OC(=O)C[C@H](O)CC[C@H](C)[C@@H](OC(=O)N2CCN(C)CC2)/C=C/[C@@H]1C [Compound 97] | > 25000 | 2890 | – | – | – | – | – | 240 | 46.987 | – | – | 11.801 | 9140 | 4370 | – | – |
